US10899753B2, “Inhibiting agents for Bruton's tyrosine kinase” (BIOGEN MA INC., priority 2018, dated 2021)

What was measured:
BTK [1] = biological target: T1, BTK (Homo sapiens (Human), UniProt Q06187); assay: In Vitro BTK Kinase Assay: BTK-POLYGAT-LS ASSAY; type: biochemical; conditions: fluorescein-labeled polyGAT peptide 100 nM, BTK enzyme 0.25 nM, 30 minutes, TRF
Method in brief: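 ATP […] and polyGAT peptide (100 nM), final concentrations, in Tris-HCl pH 7.5 kinase buffer with MgCl2, DTT, Triton X-100 and casein. Reaction run 30 min, stopped with EDTA, then 45 min at room temperature.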

BTK [2] = biological target: T1, BTK; assay: In Vitro PD Assay in Human Whole Blood (pBTK assay); type: cell-based; conditions: human heparinized whole blood, 37° C. for 30 min, total BTK capture and phosphotyrosine detection (ECL)
Method in brief: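 Heparinized human venous whole blood spiked with serially diluted compound (0.1% DMSO final) and incubated 30 min at 37° C. Lysed with protease/phosphatase inhibitors (high control +PPi, low control −PPi lacking phosphatase inhibitors); total BTK captured and phosphotyrosine detected.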

T1 sequence (Q06187 whole entry): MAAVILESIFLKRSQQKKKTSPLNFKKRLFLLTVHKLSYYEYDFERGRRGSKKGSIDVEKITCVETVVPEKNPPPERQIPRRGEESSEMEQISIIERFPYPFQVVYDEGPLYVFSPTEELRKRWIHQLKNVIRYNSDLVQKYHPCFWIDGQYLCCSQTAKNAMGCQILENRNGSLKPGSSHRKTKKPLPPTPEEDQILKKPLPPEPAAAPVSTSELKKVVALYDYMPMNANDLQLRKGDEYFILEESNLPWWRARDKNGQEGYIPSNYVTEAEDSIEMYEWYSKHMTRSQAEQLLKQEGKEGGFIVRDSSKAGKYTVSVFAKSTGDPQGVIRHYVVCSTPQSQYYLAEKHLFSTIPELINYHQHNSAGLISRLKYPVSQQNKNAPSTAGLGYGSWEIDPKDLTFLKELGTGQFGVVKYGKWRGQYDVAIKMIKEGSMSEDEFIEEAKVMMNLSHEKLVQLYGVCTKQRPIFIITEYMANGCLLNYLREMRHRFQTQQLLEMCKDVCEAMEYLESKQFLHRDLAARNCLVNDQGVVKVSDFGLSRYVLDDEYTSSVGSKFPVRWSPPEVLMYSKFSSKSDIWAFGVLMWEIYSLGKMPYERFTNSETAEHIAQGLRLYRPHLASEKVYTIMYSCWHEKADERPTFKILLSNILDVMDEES

| Structure (SMILES) | IC50 (BTK [1]) | IC50 (BTK [2]) |
| --- | --- | --- |
| Cn1ccc(Nc2ncnc(-c3ccc(CNC(=O)c4nc(C(C)(C)C)no4)c(CC(F)F)c3)n2)n1 [Compound 68, 3-(tert-butyl)-N-(2-(2,2-difluoroethyl)-4-(4-((1-methyl-1H-pyrazol-3-yl)amino)-1,3,5-triazin-2-yl)benzyl)-1,2,4-oxadiazole-5-carboxamide] | 1 to 10 nM | 500 to 10000 nM |
| C[C@@H](NC(=O)c1noc(C(C)(C)C)n1)c1ccc(-c2ncnc(Nc3cnn(C)c3)n2)c(F)c1Cl [Compound 69, (R)-5-(tert-butyl)-N-(1-(2-chloro-3-fluoro-4-(4-((1-methyl-1H-pyrazol-4-yl)amino)-1,3,5-triazin-2-yl)phenyl)ethyl)-1,2,4-oxadiazole-3-carboxamide] | < 1 nM | < 100 nM |
| Cc1c([C@@H](C)NC(=O)c2noc(C(C)(C)C)n2)ccc(-c2ncnc(Nc3ccn(C)n3)n2)c1F [Compound 71, (R)-5-(tert-butyl)-N-(1-(3-fluoro-2-methyl-4-(4-((1-methyl-1H-pyrazol-3-yl)amino)-1,3,5-triazin-2-yl)phenyl)ethyl)-1,2,4-oxadiazole-3-carboxamide] | < 1 nM | 100 to 500 nM |
| Cc1c([C@@H](C)NC(=O)c2nc(C(C)(C)C)no2)ccc(-c2ncnc(Nc3ccn(C)n3)n2)c1F [Compound 72, (R)-3-(tert-butyl)-N-(1-(3-fluoro-2-methyl-4-(4-((1-methyl-1H-pyrazol-3-yl)amino)-1,3,5-triazin-2-yl)phenyl)ethyl)-1,2,4-oxadiazole-5-carboxamide] | < 1 nM | 100 to 500 nM |
| Cc1c([C@@H](C)NC(=O)c2noc(C(C)(C)C)n2)ccc(-c2ncnc(Nc3cnn(C)c3)n2)c1F [Compound 73, (R)-5-(tert-butyl)-N-(1-(3-fluoro-2-methyl-4-(4-((1-methyl-1H-pyrazol-4-yl)amino)-1,3,5-triazin-2-yl)phenyl)ethyl)-1,2,4-oxadiazole-3-carboxamide] | < 1 nM | < 100 nM |
| Cc1c([C@@H](C)NC(=O)c2nc(C(C)(C)C)no2)ccc(-c2ncnc(Nc3cnn(C)c3)n2)c1F [Compound 74, (R)-3-(tert-butyl)-N-(1-(3-fluoro-2-methyl-4-(4-((1-methyl-1H-pyrazol-4-yl)amino)-1,3,5-triazin-2-yl)phenyl)ethyl)-1,2,4-oxadiazole-5-carboxamide] | < 1 nM | < 100 nM |
| Cc1c([C@@H](C)NC(=O)c2cc(C(C)(C)C)no2)ccc(-c2ncnc(Nc3cnn(C)c3)n2)c1F [Compound 75, (R)-3-(tert-butyl)-N-(1-(3-fluoro-2-methyl-4-(4-((1-methyl-1H-pyrazol-4-yl)amino)-1,3,5-triazin-2-yl)phenyl)ethyl)isoxazole-5-carboxamide] | < 1 nM | 100 to 500 nM |
| Cc1c([C@@H](C)NC(=O)c2cc(C(C)(C)C)on2)ccc(-c2ncnc(Nc3cnn(C)c3)n2)c1F [Compound 76, (R)-5-(tert-butyl)-N-(1-(3-fluoro-2-methyl-4-(4-((1-methyl-1H-pyrazol-4-yl)amino)-1,3,5-triazin-2-yl)phenyl)ethyl)isoxazole-3-carboxamide] | < 1 nM | 100 to 500 nM |
| Cc1c(-c2ncnc(Nc3cnn(C)c3)n2)ccc([C@@H](C)NC(=O)c2noc(C(C)(C)C)n2)c1Cl [Compound 77, (R)-5-(tert-butyl)-N-(1-(2-chloro-3-methyl-4-(4-((1-methyl-1H-pyrazol-4-yl)amino)-1,3,5-triazin-2-yl)phenyl)ethyl)-1,2,4-oxadiazole-3-carboxamide] | < 1 nM | 100 to 500 nM |
| Cc1c(-c2ncnc(Nc3cnn(C)c3)n2)ccc([C@@H](C)NC(=O)c2nc(C(C)(C)C)no2)c1Cl [Compound 78, (R)-3-(tert-butyl)-N-(1-(2-chloro-3-methyl-4-(4-((1-methyl-1H-pyrazol-4-yl)amino)-1,3,5-triazin-2-yl)phenyl)ethyl)-1,2,4-oxadiazole-5-carboxamide] | 1 to 10 nM | 100 to 500 nM |
| Cc1c(-c2ncnc(Nc3ccn(C)n3)n2)ccc([C@@H](C)NC(=O)c2noc(C(C)(C)C)n2)c1Cl [Compound 79, (R)-5-(tert-butyl)-N-(1-(2-chloro-3-methyl-4-(4-((1-methyl-1H-pyrazol-3-yl)amino)-1,3,5-triazin-2-yl)phenyl)ethyl)-1,2,4-oxadiazole-3-carboxamide] | 1 to 10 nM | 500 to 10000 nM |
| Cc1c([C@@H](C)NC(=O)c2nc(C(C)(C)C)no2)ccc(-c2ncnc(Nc3cnn(C)c3)n2)c1Cl [Compound 80, (R)-3-(tert-butyl)-N-(1-(3-chloro-2-methyl-4-(4-((1-methyl-1H-pyrazol-4-yl)amino)-1,3,5-triazin-2-yl)phenyl)ethyl)-1,2,4-oxadiazole-5-carboxamide] | < 1 nM | 100 to 500 nM |
| Cc1c([C@@H](C)NC(=O)c2noc(C(C)(C)C)n2)ccc(-c2ncnc(Nc3cnn(C)c3)n2)c1Cl [Compound 81, (R)-5-(tert-butyl)-N-(1-(3-chloro-2-methyl-4-(4-((1-methyl-1H-pyrazol-4-yl)amino)-1,3,5-triazin-2-yl)phenyl)ethyl)-1,2,4-oxadiazole-3-carboxamide] | < 1 nM | < 100 nM |
| C[C@@H](NC(=O)c1noc(C(C)(C)C)n1)c1ccc(-c2ncnc(Nc3ccn(C)n3)n2)c(F)c1C(F)F [Compound 82, (R)-5-(tert-butyl)-N-(1-(2-(difluoromethyl)-3-fluoro-4-(4-((1-methyl-1H-pyrazol-3-yl)amino)-1,3,5-triazin-2-yl)phenyl)ethyl)-1,2,4-oxadiazole-3-carboxamide] | 1 to 10 nM | 500 to 10000 nM |
| Cn1ccc(Nc2ncnc(-c3cc4c(cc3F)[C@H](NC(=O)c3noc(C(C)(C)C)n3)CCCC4)n2)n1 [Compound 84, (R)-5-(tert-butyl)-N-(3-fluoro-2-(4-((1-methyl-1H-pyrazol-3-yl)amino)-1,3,5-triazin-2-yl)-6,7,8,9-tetrahydro-5H-benzo[7]annulen-5-yl)-1,2,4-oxadiazole-3-carboxamide] | < 1 nM | 100 to 500 nM |
| Cn1ccc(Nc2ncnc(-c3cc4c(cc3F)[C@H](NC(=O)c3nc(C(C)(C)C)no3)CCCC4)n2)n1 [Compound 85, (R)-3-(tert-butyl)-N-(3-fluoro-2-(4-((1-methyl-1H-pyrazol-3-yl)amino)-1,3,5-triazin-2-yl)-6,7,8,9-tetrahydro-5H-benzo[7]annulen-5-yl)-1,2,4-oxadiazole-5-carboxamide] | < 1 nM | < 100 nM |
| Cn1cc(Nc2ncnc(-c3cc4c(cc3F)[C@H](NC(=O)c3noc(C(C)(C)C)n3)CCCC4)n2)cn1 [Compound 86, (R)-5-(tert-butyl)-N-(3-fluoro-2-(4-((1-methyl-1H-pyrazol-4-yl)amino)-1,3,5-triazin-2-yl)-6,7,8,9-tetrahydro-5H-benzo[7]annulen-5-yl)-1,2,4-oxadiazole-3-carboxamide] | < 1 nM | < 100 nM |
| Cn1cc(Nc2ncnc(-c3cc4c(cc3F)[C@H](NC(=O)c3nc(C(C)(C)C)no3)CCCC4)n2)cn1 [Compound 87, (R)-3-(tert-butyl)-N-(3-fluoro-2-(4-((1-methyl-1H-pyrazol-4-yl)amino)-1,3,5-triazin-2-yl)-6,7,8,9-tetrahydro-5H-benzo[7]annulen-5-yl)-1,2,4-oxadiazole-5-carboxamide] | < 1 nM | < 100 nM |
| Cn1cc(Nc2ncnc(-c3ccc4c(c3F)CCCC[C@H]4NC(=O)c3noc(C(C)(C)C)n3)n2)cn1 [Compound 88, (R)-5-(tert-butyl)-N-(1-fluoro-2-(4-((1-methyl-1H-pyrazol-4-yl)amino)-1,3,5-triazin-2-yl)-6,7,8,9-tetrahydro-5H-benzo[7]annulen-5-yl)-1,2,4-oxadiazole-3-carboxamide] | < 1 nM | < 100 nM |
| Cn1ccc(Nc2ncnc(-c3ccc4c(c3F)CCCC[C@H]4NC(=O)c3nc(C(C)(C)C)no3)n2)n1 [Compound 89, (R)-3-(tert-butyl)-N-(1-fluoro-2-(4-((1-methyl-1H-pyrazol-3-yl)amino)-1,3,5-triazin-2-yl)-6,7,8,9-tetrahydro-5H-benzo[7]annulen-5-yl)-1,2,4-oxadiazole-5-carboxamide] | < 1 nM | < 100 nM |
| Cn1cc(Nc2ncnc(-c3ccc4c(c3)CN(CC(F)(F)F)CC[C@H]4NC(=O)c3noc(C(C)(C)C)n3)n2)cn1 [Compound 90, (R)-5-(tert-butyl)-N-(8-(4-((1-methyl-1H-pyrazol-4-yl)amino)-1,3,5-triazin-2-yl)-2-(2,2,2-trifluoroethyl)-2,3,4,5-tetrahydro-1H-benzo[c]azepin-5-yl)-1,2,4-oxadiazole-3-carboxamide] | < 1 nM | < 100 nM |
| Cn1cc(Nc2ncnc(-c3ccc4c(c3)CN(CC(F)(F)F)CC[C@H]4NC(=O)c3coc(C(C)(C)C)n3)n2)cn1 [Compound 92, 2-tert-butyl-N-[(5R)-8-[4-[(1-methylpyrazol-4-yl)amino]-1,3,5-triazin-2-yl]-2-(2,2,2-trifluoroethyl)-1,3,4,5-tetrahydro-2-benzazepin-5-yl]oxazole-4-carboxamide] | < 1 nM | < 100 nM |
| Cn1cc(Nc2ncnc(-c3ccc4c(c3)CN(CC(F)(F)F)CC[C@H]4NC(=O)c3nc(C(C)(C)C)co3)n2)cn1 [Compound 93, 4-tert-butyl-N-[(5R)-8-[4-[(1-methylpyrazol-4-yl)amino]-1,3,5-triazin-2-yl]-2-(2,2,2-trifluoroethyl)-1,3,4,5-tetrahydro-2-benzazepin-5-yl]oxazole-2-carboxamide] | < 1 nM | < 100 nM |
